Where a name gives a salt, the structure may show the parent alone.
What was measured:
[1] = test system: Winter wheat (Triticum aestivum); experiment: Greenhouse experiment: influence of adjuvants on glyphosate efficacy on wheat (fresh weight 21 DAT); assay type: in vivo; conditions: adjuvant 0.25% w/v
Experimental: (§1) Greenhouse experiments were conducted to investigate the potency of the mixtures of alkoxylated oligoglycosides and alkoxylated primary alcohols as adjuvants for glyphosate. Winter wheat (Triticum aestivum) was used as a model for difficult-to-wet grasses and black night-shade (Solanum nigrum) was used as a model plant with an easy-to-wet, but difficult-to-penetrate, leaf surface. Both were grown in a growth chamber under 14 hours of light, at 18/12(±0.5)° C. (day/night) temperature, and in 70/80(±5)% (day/night) relative humidity. Light was provided by high-pressure mercury lamps and fluorescent tubes to give 70 W/m^2 (PAR) at leaf level. The plants were grown in 11 cm diameter plastic pots filled with a mixture of sand and humic potting soil (1:2 by volume). The pots were placed on sub-irrigation matting which was wetted daily with half-strength nutrient solution. After emergence, the wheat seedlings were thinned to six plants/pot for the efficacy experiments. Black nightshade seedlings were thinned to one plant/pot. Black nightshade and wheat were treated at the three- and the four-leaf stage, respectively. The fresh weights of the plants were measured 14 days after treatment (DAT) for black nightshade and 21 DAT for wheat. The glyphosate solutions were applied with an air-pressured laboratory track sprayer with 1.2-mm nozzles fitted with a perforated (0.6 mm) whirling pin and delivering 200 L/ha at 303 kPa. These were added to the unformulated monoisopropylamine salt of glyphosate [MON 8717 (glyphosate IPA salt 648 gai/litre=2.84 M without adjuvant)] at a concentration of 0.25% (w/v). Demineralised water was used as the carrier.
(§2) Based on previous work, these rates were 77.8 gae/hectare (equivalent to 2.3 mM at 200 litres/hectare) on wheat and 30.4 gae/hectare (equivalent to 0.9 mM) on black nightshade. The experiments were conducted as a randomised complete block with four replicates. Two separate experiments were conducted for each of the two plant species. The data was subjected to analysis of variance using the Genstat statistical package (Release 6.1 from Rothamsted Experimental Station). The performance of the products on both species was expressed as a percentage of the FW of untreated plants. Examples 1 to 8 are according to the invention, examples C1 to C12 serve as comparison.

[2] = test system: black nightshade SOLNI (Solanum Nigrum); experiment: Greenhouse experiment: influence of adjuvants on glyphosate efficacy on black nightshade (fresh weight 14 DAT); assay type: in vivo; conditions: adjuvant 0.25% w/v
Experimental: as §1, §2

[3] = average of trials 1 and 2, glyphosate 2.3 mM
[4] = glyphosate 2.3 mM (77.8 g a.e./ha at 200 L/ha)
[5] = 0.6 mM glyphosate (20.3 g a.e./ha at 200 L/ha)
[6] = 0.9 mM glyphosate (30.4 g a.e./ha at 200 L/ha)

O=C(O)CNCP(=O)(O)O [Gly, monoisopropylamine salt of glyphosate]
Average % (FW as percentage of the FW of untreated plants) [1, 3]: 78.3% | Average g FW [1, 3]: 18.15 g | Trial 1 g FW [1, 4]: 22.33 g | Trial 2 g FW [1, 4]: 13.97 g | Trial 2 % (FW as percentage of the FW of untreated plants) [2, 5]: 84.5% | Trial 2 g FW [2, 5]: 14.66 g | Trial 1 % (FW as percentage of the FW of untreated plants) [2, 6]: 35.1% | Trial 1 g FW [2, 6]: 5.59 g

Reference: patent US20110082037A1, “Adjuvant Compositions” (COGNIS IP MANAGEMENT GMBH, priority 2008, published 2011)
